From patent US10172777B2, “Phytospingosine derivative and composition containing same” (AMOREPACIFIC CORPORATION, priority 2015, dated 2019)

Key:
[1] = Solubility test: precipitation behavior in aqueous solution kept at room temperature; assay type: physicochemical; parameters: key: ◯: Not precipitated; Δ: Not remarkably precipitated but fine particles are generated; X: Remarkably precipitated; settings: dissolved at 50 to 60° C.
Description: Thereafter, the resulting solution was kept at room temperature to check a precipitation behavior over time. As Comparative Example, the same experiment was performed using phytospingosine.

[2] = tested on: Aspergillus niger (A. niger); assay: Antibacterial test (MIC, double dilution in 96-well plate); assay type: cell-based; settings: P. ovale medium, cultured 32 to 48 hours
Description: (§1) As six representative microbes (fungi, and bacteria) causing skin diseases, each of Malassezia globosa, Malassezia restricta, Candia albicans (C. albicans), Aspergillus niger (A. niger), Enterococcus faecalis, and Brevundimonas vesicularis was seeded in a P. ovale medium, and cultured at 32° C. for 3 days while stirring. The resulting culture broth was diluted with P. ovale at a density of 1.0×10^7 CFU/mL, and the diluted culture broth was used as a test bacterial solution. […] (1) 200 μL of the sample solution prepared in (2) was added to the first row of a 96-well plate. 100 μL of P. ovale was added to the other wells. (2) After the first row of the mixtures were thoroughly mixed, 100 μL of each of the mixtures was taken, added to the second row, and then thoroughly mixed, and 100 μL of each of the mixtures was again taken, and added to the third row. Thereafter, this procedure was repeated to perform a double dilution. (3) After each of the microbes were cultured for 32 to 48 hours, a degree of suspension was used to determine whether the bacteria were growing. […] When it was difficult to determine whether the bacteria were growing due to the opaque mixed solution, the growth of the bacteria was observed under a microscope.

[3] = tested on: Brevundimonas vesicularis; assay: as above; assay type: cell-based; settings: P. ovale medium, cultured 32 to 48 hours
Description: as §1

[4] = tested on: Candia albicans (C. albicans); assay: as above; assay type: cell-based; settings: P. ovale medium, cultured 32 to 48 hours
Description: as §1

Enterococcus faecalis = assay: as above; assay type: cell-based; settings: P. ovale medium, cultured 32 to 48 hours
Description: as §1

Malassezia globosa = assay: as above; assay type: cell-based; settings: P. ovale medium, cultured 32 to 48 hours
Description: as §1

Malassezia restricta = assay: as above; assay type: cell-based; settings: P. ovale medium, cultured 32 to 48 hours
Description: as §1

[5] = solvent isocetyl alcohol; cited from earlier work
[6] = 0.1% by weight in distilled water, 1 day
[7] = 0.1% by weight in distilled water, 7 days
[8] = 0.1% by weight in distilled water, 30 days
[9] = 1.0% by weight in distilled water, 1 day
[10] = 1.0% by weight in distilled water, 7 days
[11] = 1.0% by weight in distilled water, 30 days

For `CCCCCCCCCCCCCC[C@@H](O)[C@@H](O)[C@@H](N)CO` [Comparative Example, phytospingosine], the “precipitation behavior over time” value [1, 6] was “Δ”, the “precipitation behavior over time” value [1, 7] was “X” and the “precipitation behavior over time” value [1, 8] was “X”. For the same compound, the “precipitation behavior over time” value [1, 9] was “X”, the “precipitation behavior over time” value [1, 10] was “X” and the “precipitation behavior over time” value [1, 11] was “X”. The “minimum inhibitory concentration (MIC)” value [2] was 0.5, the “minimum inhibitory concentration (MIC)” value [3] was under 0.00097 and the “minimum inhibitory concentration (MIC)” value [4] was 0.0312. The “minimum inhibitory concentration (MIC)” value (Enterococcus faecalis) was 0.062, the “minimum inhibitory concentration (MIC)” value (Malassezia globosa) was 0.001954 and the “minimum inhibitory concentration (MIC)” value (Malassezia restricta) was 0.001954. The “content dissolved in isocetyl alcohol” value [5] was “approximately 1 % by weight”.
For `CCCCCCCCCCCCCC[C@@H](O)[C@@H](O)[C@H](CO)NCC1(O)OC[C@@H](O)[C@@H](O[C@H]2O[C@H](CO)[C@@H](O)[C@H](O)[C@H]2O)[C@@H]1O` (stereo partly shown) [Example 1], the “precipitation behavior over time” value [1, 6] was “◯”, the “precipitation behavior over time” value [1, 7] was “◯” and the “precipitation behavior over time” value [1, 8] was “◯”. The “precipitation behavior over time” value [1, 9] was “◯”, the “precipitation behavior over time” value [1, 10] was “◯” and the “precipitation behavior over time” value [1, 11] was “◯”. For the same compound, the “minimum inhibitory concentration (MIC)” value [2] was 0.25, the “minimum inhibitory concentration (MIC)” value [3] was under 0.00097 and the “minimum inhibitory concentration (MIC)” value [4] was 0.0019. The “minimum inhibitory concentration (MIC)” value (Enterococcus faecalis) was 0.0039, the “minimum inhibitory concentration (MIC)” value (Malassezia globosa) was 0.001954 and the “minimum inhibitory concentration (MIC)” value (Malassezia restricta) was 0.001954.
For `CCCCCCCCCCCCCC[C@@H](O)[C@@H](O)[C@H](CO)NCC1(O)OC[C@@H](O)[C@@H](O[C@H]2O[C@H](CO)[C@H](O)[C@H](O)[C@H]2O)[C@@H]1O` (stereo partly shown) [Example 2], the “precipitation behavior over time” value [1, 6] was “◯”, the “precipitation behavior over time” value [1, 7] was “◯” and the “precipitation behavior over time” value [1, 8] was “◯”. The “precipitation behavior over time” value [1, 9] was “◯”, the “precipitation behavior over time” value [1, 10] was “◯” and the “precipitation behavior over time” value [1, 11] was “◯”.
